Among the test systems are OVCAR-5 ovarian; A498 renal; UACC-257 melanoma; U251 CNS; HT29 colon; K-562 leukemia; SW-620 colon; HCC-2998 colon.
What all share (experiment): NCI tumour cell line growth inhibition, 48 h

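Cultured in 96-well plates, cells were exposed to test compound for 48 hours across five concentrations. Here, GI50 denotes the concentration required for 50% inhibition of growth. Definition used: TGI = concentration required for complete inhibition of growth.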

With `COc1ccc(/C=C2\C(=O)Nc3ccccc32)cc1OC`, the TGI in the assay on OVCAR-5 ovarian, in the assay on A498 renal, in the assay with UACC-257 melanoma, in the assay on U251 CNS, in the assay on HT29 colon and in the assay on K-562 leukemia was above 100 µM in each case. The TGI in the assay on SW-620 colon was above 100 µM.
For `CCCCN(CCCC)C(=O)C(=O)C(C(=O)C(=O)OC)c1nc2ccccc2o1` (stereo unspecified), the TGI with OVCAR-5 ovarian, in the assay with HCC-2998 colon, in the assay on A498 renal, in the assay with UACC-257 melanoma, in the assay on U251 CNS and in the assay on HT29 colon was above 100 µM each time. In addition, the TGI in the assay on K-562 leukemia and with SW-620 colon was above 100 µM throughout.
As for `Cn1cnc([N+](=O)[O-])c1Sc1nccn1-c1ccccc1`, the TGI in the assay with OVCAR-5 ovarian, with HCC-2998 colon, with A498 renal, in the assay with UACC-257 melanoma, in the assay on U251 CNS and with HT29 colon was above 100 µM each time. Moreover, the TGI in the assay on K-562 leukemia and with SW-620 colon was above 100 µM in each case.
With `OCC(O)COc1ccc(F)cc1` (stereo unspecified), the TGI in the assay with OVCAR-5 ovarian, in the assay on HCC-2998 colon, with A498 renal, in the assay with UACC-257 melanoma, in the assay with U251 CNS and in the assay with HT29 colon was above 100 µM each time. In addition, the TGI in the assay with K-562 leukemia and in the assay with SW-620 colon was above 100 µM throughout.
As for `Cc1cc2c(=O)cc(-c3ccc(Cl)cc3Cl)oc2c(C(=O)O)c1C`, the TGI with OVCAR-5 ovarian, in the assay on UACC-257 melanoma, with U251 CNS, in the assay on HT29 colon, in the assay with K-562 leukemia and with SW-620 colon was above 100 µM in each case.
As to `COC1OC(CO)C(O)C(NC(=O)N(C)N=O)C1O` (stereo unspecified), the TGI in the assay on HCC-2998 colon, in the assay on A498 renal, with U251 CNS, in the assay on HT29 colon, with K-562 leukemia and in the assay on SW-620 colon was above 100 µM in each case.
`COc1cc(/C=C(\C)c2ccc3c(c2)OCO3)cc(OC)c1OC`: the TGI in the assay on OVCAR-5 ovarian was above 100 µM; with HCC-2998 colon it was above 100 µM; in the assay with A498 renal it was 83.5 µM; in the assay on UACC-257 melanoma, above 100 µM; in the assay with U251 CNS, above 100 µM; with HT29 colon, above 100 µM. Moreover, the results for the TGI in the assay on K-562 leukemia and in the assay on SW-620 colon were above 100 µM and 95 µM, respectively.
As for `NC(=S)N/N=C/c1cn(CCCl)c2ccccc12`, the TGI in the assay on OVCAR-5 ovarian, with UACC-257 melanoma, in the assay on HT29 colon, in the assay on K-562 leukemia and in the assay on SW-620 colon was above 100 µM throughout.
On to `CC(=O)OC1C(COC(N)=O)OC(n2c(-c3ccc(C)cc3)cc(-c3ccccc3)c(C#N)c2=O)C(OC(C)=O)C1OC(C)=O` (stereo unspecified), for which the TGI with OVCAR-5 ovarian, in the assay with HCC-2998 colon, with A498 renal, in the assay on UACC-257 melanoma, with U251 CNS and in the assay with HT29 colon was above 100 µM each time. Also, the TGI in the assay on K-562 leukemia and with SW-620 colon was above 100 µM throughout.
As to `Cc1cc2c(=O)cc(-c3ccc(Cl)c(Cl)c3)oc2c(C(=O)O)c1C`, the TGI in the assay on OVCAR-5 ovarian, with UACC-257 melanoma, in the assay on U251 CNS, with HT29 colon, in the assay with K-562 leukemia and in the assay on SW-620 colon was above 100 µM in each case.
Consider `COC(=O)C(=O)C(C(=O)C(=O)Nc1ccccc1C(N)=O)c1nc2ccc([N+](=O)[O-])cc2[nH]c1=O` (stereo unspecified), for which the TGI in the assay on OVCAR-5 ovarian, in the assay with HCC-2998 colon, with A498 renal, with UACC-257 melanoma, in the assay with U251 CNS and in the assay with HT29 colon was above 100 µM in each case. The TGI in the assay with K-562 leukemia and in the assay with SW-620 colon was above 100 µM each time.
Regarding `CCOC(=O)c1c2c(n(Cc3ccccc3)c1C)-c1nc[nH]c1C(=O)C2=O`, the GI50 with A498 renal is 16.3 µM; with UACC-257 melanoma, 16.4 µM; with U251 CNS it was 14.7 µM; in the assay with HT29 colon it was 28.9 µM; in the assay on K-562 leukemia it was 3.08 µM; with SW-620 colon it was 20.5 µM. Moreover, the TGI in the assay on A498 renal was found to be 30.1 µM; in the assay on UACC-257 melanoma, 30 µM; in the assay on U251 CNS it was 27.8 µM; in the assay on HT29 colon it was 76.4 µM; with K-562 leukemia, 19.1 µM; in the assay with SW-620 colon it was 41.8 µM.
For `Cc1cc2c(=O)cc(-c3ccc(C(=O)O)cc3)oc2c(C(N)=O)c1C`, the TGI with OVCAR-5 ovarian, in the assay on HCC-2998 colon, with A498 renal, in the assay with UACC-257 melanoma, in the assay on U251 CNS and in the assay with HT29 colon was above 100 µM throughout. The TGI in the assay with K-562 leukemia and in the assay with SW-620 colon was above 100 µM in each case.
`CNC(=O)N(CCCC(NC(C)=O)C(=O)NCc1ccccc1)Cc1ccccc1` (stereo unspecified): the TGI in the assay on OVCAR-5 ovarian, in the assay with HCC-2998 colon, in the assay on A498 renal, in the assay on UACC-257 melanoma, in the assay on U251 CNS and in the assay with HT29 colon was above 100 µM in each case. Further, the TGI with K-562 leukemia and in the assay with SW-620 colon was above 100 µM each time.
As to `C=CCC1=C2CCCCC2CCC1=O` (stereo unspecified), the TGI in the assay with OVCAR-5 ovarian, in the assay with A498 renal, in the assay with UACC-257 melanoma, in the assay on U251 CNS, with K-562 leukemia and in the assay on SW-620 colon was above 100 µM each time.
On to `CCOc1ccc(N=C2NC(=O)C(CC(=O)Nc3ccc(Cl)cc3Cl)S2)cc1` (stereo unspecified), for which the TGI in the assay with OVCAR-5 ovarian, with HCC-2998 colon, with A498 renal, in the assay with UACC-257 melanoma, in the assay with U251 CNS and with HT29 colon was above 100 µM throughout. Besides, the TGI with K-562 leukemia and in the assay with SW-620 colon was above 100 µM each time.
Turning to `Cc1cc2c(=O)cc(-c3ccc(O)cc3)oc2c(C(=O)O)c1C`, the TGI in the assay with OVCAR-5 ovarian, in the assay with HCC-2998 colon, in the assay on UACC-257 melanoma, in the assay on U251 CNS, with HT29 colon and with K-562 leukemia was above 100 µM each time. This molecule also showed a TGI with SW-620 colon above 100 µM.
Regarding `Cc1ccc(S(=O)OC2c3ccccc3Cc3ccccc32)cc1` (stereo unspecified), the TGI in the assay on OVCAR-5 ovarian was 31.7 µM; in the assay on HCC-2998 colon it was 33.8 µM; in the assay with A498 renal, 42.8 µM; in the assay on UACC-257 melanoma, 34.9 µM; in the assay with U251 CNS, 78.5 µM; in the assay on HT29 colon it was above 100 µM. Moreover, the values for the TGI in the assay on K-562 leukemia and in the assay with SW-620 colon were 62.1 µM and 59.6 µM, respectively.
Consider `S=C1NC(c2ccccc2)=NC(Cc2ccccc2)(c2ccccc2)N1c1ccccc1` (stereo unspecified), for which the TGI with OVCAR-5 ovarian, with HCC-2998 colon, in the assay with A498 renal, with UACC-257 melanoma, with HT29 colon and in the assay with K-562 leukemia was above 100 µM in each case. In addition, the TGI with SW-620 colon is above 100 µM.
In the case of `CN(CC(=O)O)S(=O)(=O)c1ccc(Cl)cc1`, the TGI with OVCAR-5 ovarian, in the assay with HCC-2998 colon, in the assay on A498 renal, with UACC-257 melanoma, in the assay with U251 CNS and in the assay with HT29 colon was above 100 µM in each case. Moreover, the TGI in the assay with K-562 leukemia and with SW-620 colon was above 100 µM each time.
For `S=c1sc2sc(=S)sc2s1`, the TGI was 40.2 µM in the assay with OVCAR-5 ovarian; above 100 µM in the assay with HCC-2998 colon; 48.2 µM with A498 renal; above 100 µM in the assay with UACC-257 melanoma; 49 µM with U251 CNS; 78.9 µM in the assay with HT29 colon. Moreover, the TGI with K-562 leukemia and with SW-620 colon was above 100 µM each time.
On to `COC(=O)CCC(=O)C(CC(=O)OC)C(=O)CCC(=O)NCCc1ccccc1` (stereo unspecified), for which the TGI in the assay with OVCAR-5 ovarian, with HCC-2998 colon, with A498 renal, with UACC-257 melanoma, with U251 CNS and with HT29 colon was above 100 µM throughout. Moreover, the TGI in the assay on K-562 leukemia and in the assay on SW-620 colon was above 100 µM each time.
Take `O=C([CH-]C(=O)c1ccccc1)c1ccccc1.O=C([CH-]C(=O)c1ccccc1)c1ccccc1.[CH2-]CCC.[CH2-]CCC.[Sn+4]`: the GI50 was 2.06 µM in the assay on OVCAR-5 ovarian; 0.519 µM with HCC-2998 colon; 0.369 µM with A498 renal; 0.45 µM in the assay on U251 CNS; 0.15 µM in the assay with K-562 leukemia; 0.133 µM with SW-620 colon. For the same molecule, the TGI in the assay with OVCAR-5 ovarian was 3.51 µM; in the assay on HCC-2998 colon, 1.92 µM; with A498 renal, 1.5 µM; in the assay with U251 CNS, 1.56 µM; in the assay on K-562 leukemia, 0.746 µM; in the assay on SW-620 colon, 0.325 µM.
Take `CN1C[C@@H]2CC(=O)CC[C@@H]2C[C@H]1C#N`: the TGI with OVCAR-5 ovarian, with HCC-2998 colon, in the assay with A498 renal, in the assay on UACC-257 melanoma, with HT29 colon and in the assay on K-562 leukemia was above 100 µM throughout. The same molecule came in with a TGI in the assay on SW-620 colon above 100 µM.
For the molecule `Cc1ccccc1C(C#N)/C(=N/NC(N)=S)C(=O)Nc1c(C)cccc1C` (stereo unspecified), the TGI in the assay on OVCAR-5 ovarian, in the assay with HCC-2998 colon, in the assay on UACC-257 melanoma, with U251 CNS, in the assay on HT29 colon and with SW-620 colon was above 100 µM in each case.

Values taken from PubChem BioAssay (NCI).
